From the NIST ThermoML archive (doi:10.1016/j.jct.2019.03.008)

Experiments:
[1] = Boiling temperature at pressure P; details: Liquid, DSC
[2] = Crystal; DTA

Oc1ccccc1O [1,2-benzenediol]
[1]
Details | Boiling temperature at pressure P [°C]
2.95 kPa | 139.1
3.93 kPa | 145.5
4.93 kPa | 150.7

CCCc1c(O)cccc1O [2-propylresorcinol]
Details | Normal melting temperature [°C]
[2] | 104.8

[1]
Details | Boiling temperature at pressure P [°C]
9.92 kPa | 197.5
19.83 kPa | 218.2
29.79 kPa | 231.6
49.69 kPa | 250.2
69.61 kPa | 263.2
98.91 kPa | 278.0
198.31 kPa | 309.6
299.37 kPa | 332.2
400.46 kPa | 345.8

CCCCCCc1ccc(O)cc1O [1,3-dihydroxy-4-hexylbenzene]
Details | Normal melting temperature [°C]
[2] | 67.0

[1]
Details | Boiling temperature at pressure P [°C]
1.95 kPa | 201.0
2.95 kPa | 211.0
3.87 kPa | 218.7
5.42 kPa | 227.1
7.89 kPa | 238
9.9 kPa | 244.6
19.83 kPa | 267
29.78 kPa | 281.4
49.68 kPa | 301.2
69.58 kPa | 315.0
79.52 kPa | 321.4
100.93 kPa | 332.4
198.33 kPa | 364.4
223.29 kPa | 371.5
250.21 kPa | 378

Oc1cccc(O)c1 [1,3-benzenediol]
[1]
Details | Boiling temperature at pressure P [°C]
2.95 kPa | 171.6
3.93 kPa | 178.2
4.93 kPa | 183.7

CCc1ccc(O)cc1O [4-ethylresorcinol]
Details | Normal melting temperature [°C]
[2] | 97.2

[1]
Details | Boiling temperature at pressure P [°C]
9.92 kPa | 207.4
19.87 kPa | 228.2
29.79 kPa | 241.4
49.73 kPa | 259.6
69.64 kPa | 272.6
98.43 kPa | 287.0
198.31 kPa | 318.6
299.37 kPa | 339.8
400.09 kPa | 356.2
